Assay results from patent US20250318523A1, “Use of Pinenes to Improve Localized Insecticide Injections Targeting Western Drywood Termite (Blattodea: Kalotermitidae)” (THE REGENTS OF THE UNIVERSITY OF CALIFORNIA, priority 2024, published 2025).

Assays:
I. minor workers [1] = assay: T-maze bioassay; format: in vivo, Incisitermes minor; settings: at 24 h; for percent of termites found in the treated choice block (mean±SEM): block treated with 100 μL of 0.1 mg/mL pinene in methanol; for percent of termites found in the untreated choice block (mean±SEM): other block treated with 100 μL of 0.1 mg/mL pinene in methanol
Excerpt: Termites. Western drywood termites, I. minor, were extracted from several pieces of infested wood collected in Riverside, CA. Each colony was stored in a plastic container (30.5 by 21.6 by 6.4 cm) with small pieces of basswood (150 by 100 by 3.2 mm; Midwest Products Co., Inc., Darien, IL) as a food source. A couple of small openings were made on the sides of the containers for ventilation, and the containers were placed within a larger plastic box (40.6 cm by 22.9 cm by 27.9 cm) containing a saturated NaCl solution to maintain 75% relative humidity (RH) within the larger box (Winston and Bates 1960). The stock colony boxes were kept in a growth chamber (Thermo Fisher Scientific, Waltham, MA) at 26° C. without light. To minimize the chance of using termites that were damaged during the collection process, the collected termites were left undisturbed for at least 7 days (d), and the surviving termites at the end of this period were used in the experiments. One or two different populations were randomly chosen to set up each experimental trial. Only worker termites (approximately 5 mm in length) were used for the experiments.
Chemicals. Two monoterpenes, α-pinene (98%, Sigma-Aldrich, St. Louis, MO) and (−)-β-pinene (>99%, Sigma-Aldrich), were individually tested for their effects on drywood termite behavior. Methanol was used to dissolve the pinenes at 0.1 mg/mL concentration. Clean methanol served as a solvent-only control.
T-maze Bioassay. A T-maze bioassay was developed to study the effects of α- or β-pinene on the choice behavior of I. minor within a simplified termite gallery system. The T-maze consisted of three basswood blocks (2.54 cm by 2.54 cm by 10.16 cm). One block served as a central acclimation block, while the other two served as lateral choice blocks (FIG. 2). All blocks were drilled along the centerline to form longitudinal tunnels (8.9 cm in depth, 0.95 cm in diameter), which ended near the opposite end of the block (about 1.2 cm away from the opposite end of the block). For the acclimation block, a through hole (0.95 cm in diameter) was drilled to add a cross tunnel, perpendicularly intersecting the longitudinal tunnel at its closed end. This cross tunnel provided connection points between the acclimation block and two choice blocks.
Twenty termites from the stock colony were placed in the tunnel of the acclimation block and confined there for 24 hours (h) by sealing the holes with rubber stoppers. Two choice blocks were randomly assigned for treatment (treated block) or no treatment (untreated block). […] After 24 hours, T-mazes were disassembled, and numbers of termites in each of the three blocks (two choice blocks and one acclimation block) were recorded. […]

I. minor workers [2] = assay: Channel arena bioassay; format: in vivo, Incisitermes minor; settings: after 24 hours; pinene 1.3 μg/cm2 (100 μL of 0.1 mg/mL in methanol); 20 termites, 10 replicates
Excerpt: (§1) Termites. Western drywood termites, I. minor, were extracted from several pieces of infested wood collected in Riverside, CA. Each colony was stored in a plastic container (30.5 by 21.6 by 6.4 cm) with small pieces of basswood (150 by 100 by 3.2 mm; Midwest Products Co., Inc., Darien, IL) as a food source. A couple of small openings were made on the sides of the containers for ventilation, and the containers were placed within a larger plastic box (40.6 cm by 22.9 cm by 27.9 cm) containing a saturated NaCl solution to maintain 75% relative humidity (RH) within the larger box (Winston and Bates 1960). The stock colony boxes were kept in a growth chamber (Thermo Fisher Scientific, Waltham, MA) at 26° C. without light. […]
To establish the “initial-aggregation zone,” twenty termites were confined to a 5-cm zone at one end of the channel for 24 hours (h) using a cotton plug (FIG. 1). […] After 24 hours (h), the number of termites in the treatment zone was counted under red light (110 lux, Tacklife; Levittown, NY) to minimize any disruption to the termites during observation (Cabrera and Rust 1996). […]
(§2) Statistical Analyses. […] The data were first analyzed with a Kaplan-Meier survival analysis for the insecticide bioassays. […]

I. minor workers [3] = assay: Insecticide bioassay for fipronil (channel arena); format: in vivo; settings: Incisitermes minor, 336 h; day 14; 10 μL of 0.06% aqueous fipronil suspension on 1.43 cm^2; pinene 100 μL of 0.1 mg/mL in methanol; read-out: final cumulative mortality
Excerpt: as §1
Insecticide Bioassay. The effect of pinenes on the efficacy of insecticide residue was evaluated using the channel arena bioassay design (FIG. 2). […]
Two different control groups were included in the experimental design: one without insecticide, and the other with insecticide. […] Termites were recorded as dead (no movement) or alive. […]
as §2

CC1=CCC2CC1C2(C)C (stereo not drawn) [α-pinene]
percent of termites found in the treated choice block (mean±SEM) (I. minor workers [1]): 45.5±14.1%
percent of termites found in the untreated choice block (mean±SEM) (I. minor workers [1]): 7.0±7.0%
percent of termites found in the treatment zone (mean±SEM) (I. minor workers [2]): 55±9.3%

N#Cc1nn(-c2c(Cl)cc(C(F)(F)F)cc2Cl)c(N)c1[S+]([O-])C(F)(F)F (stereo not shown) [fipronil only, fipronil]
mortality at 100 µg/mL (I. minor workers [3]): 76.5 ± 5.7%

C=C1CC[C@H]2C[C@@H]1C2(C)C [β-pinene, (−)-β-pinene]
percent of termites found in the treated choice block (mean±SEM) (I. minor workers [1]): 54.5±14.8%
percent of termites found in the untreated choice block (mean±SEM) (I. minor workers [1]): 4.5±3.5%
percent of termites found in the treatment zone (mean±SEM) (I. minor workers [2]): 58±6.3%
